Among the data in patent publication US12600709B2, “Nonpeptide somatostatin type 5 receptor agonists and uses thereof” (Crinetics Pharmaceuticals, Inc., priority 2019, dated 2026) are EC50 values, retold here.

The target in the test is T1, human somatostatin receptor subtype 5 (Homo sapiens, UniProt P35346).
T1 construct: expressed in transfected cells
In words: cAMP assay for SST5R (inhibition of cAMP in CHO-K1 cells). Format: cell-based. The note with it: Table A; inhibition of cAMP via human SST5 receptor; read-out: SST5 potency. The source says: General overview: All five SSTR subtypes are Gi coupled G-protein coupled receptors (GPCRs) that lead to decreases in intracellular cyclic AMP (cAMP) when activated by an agonist. Therefore, measurement of intracellular cAMP levels can be used to assess whether compounds of the invention are agonists of SSTR subtypes (John Kelly, Troy Stevens, W. Joseph Thompson, and Roland Seifert, Current Protocols in Pharmacology, 2005, 2.2.1-2.2). One example of an intracellular cAMP assay is described below.
cAMP Assay Protocol for SST5R:
Four days prior to the assay, 2,000 Chinese hamster ovary cells (CHO-K1, ATCC #CCL-61) stably expressing the human somatostatin receptor subtype 5 are plated in each well of a 96-well tissue culture-treated plate in Ham's F12 growth media (ThermoFisher #10-080-CM) supplemented with 10% donor bovine serum (Gemini Bio-Products #100-506), 100 U/mL penicillin; 100 µg/mL streptomycin; 2 mM L-glutamine (Gemini Bio-Products #400-110) and 0.25 mg/mL G418 Sulfate (GoldBio #108321-42-2). The cells are cultured at 37° C., 5% CO2 and 95% humidity. On the day of the assay, the media is aspirated and the cells are treated with 50 μL of 1.6 μM NKH477 (Sigma #N3290) plus various dilutions of compounds of the invention in assay buffer [1× Hank's Balanced Salt Solution (ThermoFisher #SH3058802), 0.5 mM HEPES pH 7.4, 0.1% bovine serum albumin, 0.2 mM 3-Isobutyl-1-methylxanthine (IBMX, VWR #200002-790)]. The cells are incubated for 20 minutes at 37° C. […] The cells are treated with 50 μL of lysis buffer (HRTF cAMP kit, Cisbio) for 30 minutes and then the lysate is diluted to 250 μL with assay buffer. The lysate is transferred to 384-well plates and cAMP detection and visualization antibodies are added and incubated for 1-24 hours at room temperature. The time-resolved fluorescent signal is read with a Tecan M1000Pro multiplate reader. The intracellular cAMP concentrations are calculated by regression to a standard curve and are plotted vs. the concentration of the compounds of the invention and the EC50 of the compounds are calculated using standard methods. All data manipulations are in GraphPad Prism v6 or v7.

T1 sequence (P35346 whole entry): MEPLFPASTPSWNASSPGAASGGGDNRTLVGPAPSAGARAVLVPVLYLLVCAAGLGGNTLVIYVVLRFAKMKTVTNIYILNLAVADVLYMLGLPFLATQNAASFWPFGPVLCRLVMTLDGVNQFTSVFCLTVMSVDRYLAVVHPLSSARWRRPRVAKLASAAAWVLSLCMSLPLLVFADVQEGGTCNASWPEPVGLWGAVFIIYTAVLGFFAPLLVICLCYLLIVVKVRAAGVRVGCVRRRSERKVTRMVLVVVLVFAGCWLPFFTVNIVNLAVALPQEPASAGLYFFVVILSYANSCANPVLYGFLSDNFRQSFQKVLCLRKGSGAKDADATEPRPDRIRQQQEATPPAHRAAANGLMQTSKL

On to `CC(C)CNC(=O)c1cncc(-c2cc(F)cc(F)c2)c1N1CC[C@](C)(N)C1` [1-46, 4-[(3S)-3-amino-3-methylpyrrolidin-1-yl]-5-(3,5-difluorophenyl)-N-(2-methylpropyl)pyridine-3-carboxamide], for which the EC50 was less than 10 nM. Under `C[C@]1(N)CCN(c2c(C(=O)NCC3CC(F)(F)C3)cncc2-c2cc(F)cc(F)c2)C1` [1-50, 4-[(3S)-3-amino-3-methylpyrrolidin-1-yl]-N-[(3,3-difluorocyclobutyl)methyl]-5-(3,5-difluorophenyl)pyridine-3-carboxamide] stands less than 10 nM. In the case of `C[C@@H](NC(=O)c1cncc(-c2cc(F)cc(F)c2)c1N1CC[C@](C)(N)C1)C(F)(F)F` [1-53, 4-[(3S)-3-amino-3-methylpyrrolidin-1-yl]-5-(3,5-difluorophenyl)-N-[(2R)-1,1,1-trifluoropropan-2-yl]pyridine-3-carboxamide], the EC50 is less than 10 nM. The figure for `C[C@]1(N)CCN(c2c(C(=O)N[C@H]3C[C@H](F)C3)cncc2-c2cc(F)cc(F)c2)C1` [1-55] is less than 10 nM; for `C[C@]1(N)CCN(c2c(C(=O)NC(C3CCC3)C(F)(F)F)cncc2-c2cc(F)cc(F)c2)C1` (stereo partly drawn) [1-56, 4-[(3S)-3-amino-3-methylpyrrolidin-1-yl]-N-(1-cyclobutyl-2,2,2-trifluoroethyl)-5-(3,5-difluorophenyl)pyridine-3-carboxamide] it is less than 10 nM; for `C[C@]1(N)CCN(c2c(C(=O)N[C@H]3C[C@@H](F)C3)cncc2-c2cc(F)cc(F)c2)C1` [1-59, 4-[(3S)-3-amino-3-methylpyrrolidin-1-yl]-5-(3,5-difluorophenyl)-N-[cis-3-fluorocyclobutyl]pyridine-3-carboxamide] it is less than 10 nM. Under `CC(CC(F)(F)F)NC(=O)c1cncc(-c2cc(F)cc(F)c2)c1N1CC[C@](C)(N)C1` (stereo partly drawn) [1-60, 4-[(3S)-3-amino-3-methylpyrrolidin-1-yl]-5-(3,5-difluorophenyl)-N-(4,4,4-trifluorobutan-2-yl)pyridine-3-carboxamide] stands less than 10 nM; under `CC(F)(F)CNC(=O)c1cncc(-c2cc(F)cc(F)c2)c1N1CC[C@](C)(N)C1` [1-62, 4-[(3S)-3-amino-3-methylpyrrolidin-1-yl]-5-(3,5-difluorophenyl)-N-(2,2-difluoropropyl)pyridine-3-carboxamide], less than 10 nM; under `CC(N)C1CN(c2c(C(=O)NC34CC(C3)C4)cncc2-c2cc(F)cc(F)c2)C1` (stereo not drawn) [1-63, 4-[3-(1-aminoethyl)azetidin-1-yl]-N-{bicyclo[1.1.1]pentan-1-yl}-5-(3,5-difluorophenyl)pyridine-3-carboxamide], 10 to 100 nM.

For `N#Cc1ncc(C(=O)NC23CC(C2)C3)c(N2CC[C@H](N)C2)c1-c1cccc(F)c1` [1-65, 4-[(3S)-3-aminopyrrolidin-1-yl]-N-{bicyclo[1.1.1]pentan-1-yl}-6-cyano-5-(3-fluorophenyl)pyridine-3-carboxamide], the EC50 is less than 10 nM. Under `C[C@]1(N)CCN(c2cc(C#N)ncc2C(=O)NC23CC(C2)C3)C1` [1-75, 4-[(3S)-3-amino-3-methylpyrrolidin-1-yl]-N-{bicyclo[1.1.1]pentan-1-yl}-6-cyanopyridine-3-carboxamide] stands 100 to 1000 nM; under `N#Cc1ncc(C(=O)N2CCCCC2)c(N2CC[C@H](N)C2)c1-c1cc(F)cc(F)c1` [1-80, 4-[(3S)-3-aminopyrrolidin-1-yl]-3-(3,5-difluorophenyl)-5-(piperidine-1-carbonyl)pyridine-2-carbonitrile], 100 to 1000 nM. Regarding `N#Cc1ncc(C(=O)NC2CCCC2)c(N2CC[C@H](N)C2)c1-c1cc(F)cc(F)c1` [1-82, 4-[(3S)-3-aminopyrrolidin-1-yl]-6-cyano-N-cyclopentyl-5-(3,5-difluorophenyl)pyridine-3-carboxamide], the EC50 is less than 10 nM. The figure for `N#Cc1ncc(C(=O)NC23CC(C2)C3)c(N2CC[C@H](N)C2)c1-c1cccc(Cl)c1` [1-84, 4-[(3S)-3-aminopyrrolidin-1-yl]-N-{bicyclo[1.1.1]pentan-1-yl}-5-(3-chlorophenyl)-6-cyanopyridine-3-carboxamide] is less than 10 nM; for `C[C@]1(N)CCN(c2c(C(=O)NC3CCOCC3)cnc(C#N)c2-c2cc(F)cc(F)c2)C1` [1-88, 4-[(3S)-3-amino-3-methylpyrrolidin-1-yl]-6-cyano-5-(3,5-difluorophenyl)-N-(oxan-4-yl)pyridine-3-carboxamide] it is less than 10 nM. `C[C@]1(N)CCN(c2c(C(=O)NC3CCCOC3)cnc(C#N)c2-c2cc(F)cc(F)c2)C1` (stereo partly drawn) [1-89, 4-[(3S)-3-amino-3-methylpyrrolidin-1-yl]-6-cyano-5-(3,5-difluorophenyl)-N-(oxan-3-yl)pyridine-3-carboxamide]: the EC50 was less than 10 nM. The figure for `C[C@H](NC(=O)c1cnc(C#N)c(-c2cc(F)cc(F)c2)c1N1CC[C@H](N)C1)c1ccccn1` [1-95, 4-[(3S)-3-aminopyrrolidin-1-yl]-6-cyano-5-(3,5-difluorophenyl)-N-[(1S)-1-(pyridin-2-yl)ethyl]pyridine-3-carboxamide] is less than 10 nM; for `C[C@H](NC(=O)c1cnc(C#N)c(-c2cc(F)cc(F)c2)c1N1CC[C@H](N)C1)c1ccccc1` [1-97, 4-[(3S)-3-aminopyrrolidin-1-yl]-6-cyano-5-(3,5-difluorophenyl)-N-[(1S)-1-phenylethyl]pyridine-3-carboxamide] it is less than 10 nM. Under `Cn1ccc(CNC(=O)c2cnc(C#N)c(-c3cc(F)cc(F)c3)c2N2CC[C@](C)(N)C2)n1` [1-105, 4-[(3S)-3-amino-3-methylpyrrolidin-1-yl]-6-cyano-5-(3,5-difluorophenyl)-N-[(1-methyl-1H-pyrazol-3-yl)methyl]pyridine-3-carboxamide] stands 10 to 100 nM; under `Cn1ccnc1CNC(=O)c1cnc(C#N)c(-c2cc(F)cc(F)c2)c1N1CC[C@](C)(N)C1` [1-106, 4-[(3S)-3-amino-3-methylpyrrolidin-1-yl]-6-cyano-5-(3,5-difluorophenyl)-N-[(1-methyl-1H-imidazol-2-yl)methyl]pyridine-3-carboxamide], 10 to 100 nM. Take `Cn1cc(CNC(=O)c2cnc(C#N)c(-c3cc(F)cc(F)c3)c2N2CC[C@](C)(N)C2)cn1` [1-107, 4-[(3S)-3-amino-3-methylpyrrolidin-1-yl]-6-cyano-5-(3,5-difluorophenyl)-N-[(1-methyl-1H-pyrazol-4-yl)methyl]pyridine-3-carboxamide]: the EC50 lay in the range of 10 to 100 nM.

On to `COC[C@]1(N)CCN(c2c(C(=O)N[C@@H](C)C3CC3)cnc(C#N)c2-c2cc(F)cc(F)c2)C1` [1-117, 4-[(3S)-3-amino-3-(methoxymethyl)pyrrolidin-1-yl]-6-cyano-N-[(1S)-1-cyclopropylethyl]-5-(3,5-difluorophenyl)pyridine-3-carboxamide], for which the EC50 was 100 to 1000 nM. With `Cc1cc(-c2cncc(C(=O)N[C@@H](C)C3CC3)c2N2CC[C@](C)(N)C2)cc(C)n1` [1-131, 4-[(3S)-3-amino-3-methylpyrrolidin-1-yl]-N-[(1S)-1-cyclopropylethyl]-2′,6′-dimethyl-[3,4′-bipyridine]-5-carboxamide], the EC50 is less than 10 nM. Under `CC(NC(=O)c1cnc(C#N)c(-c2cc(F)cc(F)c2)c1N1CC[C@](C)(N)C1)c1cn(C)nn1` (stereo partly drawn) [1-133, 4-[(3S)-3-amino-3-methylpyrrolidin-1-yl]-6-cyano-5-(3,5-difluorophenyl)-N-[1-(1-methyl-1H-1,2,3-triazol-4-yl)ethyl]pyridine-3-carboxamide] stands 100 to 1000 nM.
